# From paper PMC7224190, “Pharmacological inhibition of PRMT7 links arginine monomethylation to the cellular stress response” (Nature Communications, 2020)
# What was measured:
# Assay in all cases: biochemical
# Settings in all cases: read-out: % of control remaining
# [1] = target: T1, MLL1 (Homo sapiens, UniProt Q03164); parameters: radiometric methyltransferase selectivity assay with tritiated SAM, per cent activity
# T1 construct: gene KMT2A
# Experimental: (§1) The methyltransferase selectivity was assessed at two compound concentrations of 1 and 10 μM by radiometric assays using tritiated-SAM. For methyltransferases: MLL1, MLL3, EZH1 (PRC2), and EZH2 (PRC2), G9a, GLP, SUV39H1, SUV39H2, SUV420H1, SUV420H2, SETD2, SETD8, SETDB1, SETD7, PRMT1, PRMT3, PRMT4, PRMT5/ MEP50 complex, PRMT6, PRMT7, PRMT8, PRMT9, PRDM9, SMYD2, SMYD3, DNMT1, and BCDIN3D the incorporation of a tritium-labeled methyl group into biotinylated substrate was monitored using scintillation proximity assay (SPA). Briefly, a 10 μL reaction containing ^3H-SAM and substrate at concentrations close to the apparent Km values for each enzyme (balanced conditions) was prepared. The reactions were quenched with 10 μL of 7.5 M guanidine hydrochloride; 180 μL of 20 mM Tris buffer (pH 8.0) were added, and the mixture was transferred to a 96-well FlashPlate and incubated for 1 h. The counts per minute (CPM) was measured on a TopCount plate reader. The CPM in the absence of compound or enzyme was defined as 100% activity and background (0%), respectively, for each dataset[74]–[76]. Selectivity of SGC8158 against 342 kinases was evaluated in a kinase panel TR-FRET assay at 1 and 0.1 μM compound in duplicates as described before. Briefly, tagged kinases were incubated with compound and staurosporine-based fluorescent probe where the binding was detected using Tb conjugated anti-tag antibody energy transfer to the probe. Excitation wavelength was 337 nm and fluorescent emission signal was measured for Tb (486 nm) and fluorescent probe (BODIPY, 515 nm). Specific and non-specific binding was determined in the absence and presence of unlabeled staurosporine.
# [2] = target: PRMT3 (Homo sapiens, UniProt O60678); parameters: radiometric methyltransferase selectivity assay with tritiated SAM, per cent activity
# Experimental: as §1
# [3] = target: ASH1L (Homo sapiens, UniProt Q9NR48); parameters: radiometric methyltransferase selectivity assay with tritiated SAM, per cent activity
# Experimental: as §1
# [4] = target: SETD2 (Homo sapiens, UniProt Q9BYW2); parameters: radiometric methyltransferase selectivity assay with tritiated SAM, per cent activity
# Experimental: as §1
# [5] = target: T2, PRMT7 (Homo sapiens, UniProt Q9NVM4); parameters: full-length; radiometric methyltransferase selectivity assay with tritiated SAM, per cent activity
# T2 sequence (Q9NVM4 1-692): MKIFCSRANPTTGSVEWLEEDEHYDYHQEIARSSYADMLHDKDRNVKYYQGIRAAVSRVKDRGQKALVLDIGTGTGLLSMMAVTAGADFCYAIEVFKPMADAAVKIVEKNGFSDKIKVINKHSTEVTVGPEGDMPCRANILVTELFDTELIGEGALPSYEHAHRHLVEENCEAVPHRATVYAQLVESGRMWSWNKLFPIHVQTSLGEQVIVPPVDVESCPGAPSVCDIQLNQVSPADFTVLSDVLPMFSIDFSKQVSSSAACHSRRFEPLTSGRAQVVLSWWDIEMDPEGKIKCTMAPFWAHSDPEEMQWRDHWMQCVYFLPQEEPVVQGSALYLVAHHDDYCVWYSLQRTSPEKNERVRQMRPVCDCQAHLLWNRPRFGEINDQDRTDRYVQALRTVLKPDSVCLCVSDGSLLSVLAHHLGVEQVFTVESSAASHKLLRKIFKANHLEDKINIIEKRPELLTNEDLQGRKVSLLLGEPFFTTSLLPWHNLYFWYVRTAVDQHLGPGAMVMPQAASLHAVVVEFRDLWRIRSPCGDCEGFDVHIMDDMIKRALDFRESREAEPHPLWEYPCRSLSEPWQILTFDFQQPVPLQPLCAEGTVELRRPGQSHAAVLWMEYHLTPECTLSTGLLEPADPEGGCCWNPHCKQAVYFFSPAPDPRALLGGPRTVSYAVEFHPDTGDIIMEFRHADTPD
# Experimental: as §1
# Chain of SETD2 (Q9BYW2 whole entry): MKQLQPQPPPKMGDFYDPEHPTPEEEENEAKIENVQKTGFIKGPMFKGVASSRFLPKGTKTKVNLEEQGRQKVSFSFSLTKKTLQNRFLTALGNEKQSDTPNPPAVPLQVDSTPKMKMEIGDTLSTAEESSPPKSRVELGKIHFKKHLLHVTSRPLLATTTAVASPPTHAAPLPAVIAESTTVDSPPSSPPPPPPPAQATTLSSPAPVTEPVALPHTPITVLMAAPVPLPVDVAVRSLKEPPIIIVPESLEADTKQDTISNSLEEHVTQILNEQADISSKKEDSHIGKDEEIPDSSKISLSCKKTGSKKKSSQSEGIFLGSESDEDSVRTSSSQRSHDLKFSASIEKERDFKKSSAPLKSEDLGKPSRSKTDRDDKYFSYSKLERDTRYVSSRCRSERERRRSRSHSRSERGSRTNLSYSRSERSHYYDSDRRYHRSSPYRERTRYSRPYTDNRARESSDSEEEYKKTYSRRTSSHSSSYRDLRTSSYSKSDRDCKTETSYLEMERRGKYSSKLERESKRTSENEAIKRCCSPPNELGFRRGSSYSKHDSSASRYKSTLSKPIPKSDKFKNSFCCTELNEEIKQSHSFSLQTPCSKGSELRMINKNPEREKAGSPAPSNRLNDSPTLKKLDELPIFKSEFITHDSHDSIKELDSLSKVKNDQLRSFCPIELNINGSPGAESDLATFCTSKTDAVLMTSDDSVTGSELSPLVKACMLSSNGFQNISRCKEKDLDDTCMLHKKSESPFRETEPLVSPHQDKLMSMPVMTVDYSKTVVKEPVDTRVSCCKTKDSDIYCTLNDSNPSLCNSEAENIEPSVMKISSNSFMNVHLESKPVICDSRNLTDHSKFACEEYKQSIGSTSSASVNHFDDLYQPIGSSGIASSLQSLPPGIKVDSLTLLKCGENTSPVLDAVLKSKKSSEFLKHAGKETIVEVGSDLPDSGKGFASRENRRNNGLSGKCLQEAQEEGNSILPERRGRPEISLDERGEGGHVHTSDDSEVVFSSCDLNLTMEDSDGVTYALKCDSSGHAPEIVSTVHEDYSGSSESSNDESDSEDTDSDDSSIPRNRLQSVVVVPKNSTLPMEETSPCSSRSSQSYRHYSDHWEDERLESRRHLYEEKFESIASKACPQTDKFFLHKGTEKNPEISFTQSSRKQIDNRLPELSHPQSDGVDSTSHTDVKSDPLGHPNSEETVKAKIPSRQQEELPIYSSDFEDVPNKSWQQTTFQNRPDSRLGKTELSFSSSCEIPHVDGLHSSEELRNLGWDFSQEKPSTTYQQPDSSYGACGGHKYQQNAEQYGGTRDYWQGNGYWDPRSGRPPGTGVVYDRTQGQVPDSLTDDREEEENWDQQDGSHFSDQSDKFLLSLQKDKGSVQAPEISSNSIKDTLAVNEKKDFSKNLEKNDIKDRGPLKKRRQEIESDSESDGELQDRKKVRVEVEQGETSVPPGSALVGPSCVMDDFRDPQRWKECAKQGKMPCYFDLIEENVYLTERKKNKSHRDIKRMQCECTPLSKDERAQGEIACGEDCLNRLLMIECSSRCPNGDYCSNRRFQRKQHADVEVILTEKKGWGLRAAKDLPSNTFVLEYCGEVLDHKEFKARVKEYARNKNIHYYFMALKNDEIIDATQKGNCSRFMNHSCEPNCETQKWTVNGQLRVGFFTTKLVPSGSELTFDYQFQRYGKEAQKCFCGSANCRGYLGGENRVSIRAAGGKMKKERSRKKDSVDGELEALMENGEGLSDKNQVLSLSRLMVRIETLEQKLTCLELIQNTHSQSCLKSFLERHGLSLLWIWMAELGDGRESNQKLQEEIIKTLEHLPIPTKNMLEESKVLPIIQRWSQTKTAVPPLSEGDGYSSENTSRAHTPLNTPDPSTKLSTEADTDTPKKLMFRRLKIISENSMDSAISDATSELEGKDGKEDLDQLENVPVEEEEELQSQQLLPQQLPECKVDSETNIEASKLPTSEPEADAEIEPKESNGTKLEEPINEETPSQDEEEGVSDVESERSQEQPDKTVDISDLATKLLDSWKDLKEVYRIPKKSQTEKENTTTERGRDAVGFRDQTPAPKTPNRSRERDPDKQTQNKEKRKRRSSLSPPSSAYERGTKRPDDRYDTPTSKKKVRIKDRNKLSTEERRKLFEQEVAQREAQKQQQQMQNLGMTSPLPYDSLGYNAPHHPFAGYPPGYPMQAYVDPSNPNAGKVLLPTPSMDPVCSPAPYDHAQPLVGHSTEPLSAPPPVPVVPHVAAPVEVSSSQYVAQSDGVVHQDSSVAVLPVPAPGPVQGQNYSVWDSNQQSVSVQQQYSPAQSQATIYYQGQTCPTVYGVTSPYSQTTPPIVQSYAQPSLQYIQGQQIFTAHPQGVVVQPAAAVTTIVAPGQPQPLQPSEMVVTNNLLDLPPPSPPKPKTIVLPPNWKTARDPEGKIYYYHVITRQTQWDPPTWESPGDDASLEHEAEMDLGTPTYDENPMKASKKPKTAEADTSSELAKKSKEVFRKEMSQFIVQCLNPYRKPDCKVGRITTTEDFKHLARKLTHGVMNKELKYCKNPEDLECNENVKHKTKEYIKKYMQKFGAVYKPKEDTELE
# Chain of PRMT3 (O60678 whole entry): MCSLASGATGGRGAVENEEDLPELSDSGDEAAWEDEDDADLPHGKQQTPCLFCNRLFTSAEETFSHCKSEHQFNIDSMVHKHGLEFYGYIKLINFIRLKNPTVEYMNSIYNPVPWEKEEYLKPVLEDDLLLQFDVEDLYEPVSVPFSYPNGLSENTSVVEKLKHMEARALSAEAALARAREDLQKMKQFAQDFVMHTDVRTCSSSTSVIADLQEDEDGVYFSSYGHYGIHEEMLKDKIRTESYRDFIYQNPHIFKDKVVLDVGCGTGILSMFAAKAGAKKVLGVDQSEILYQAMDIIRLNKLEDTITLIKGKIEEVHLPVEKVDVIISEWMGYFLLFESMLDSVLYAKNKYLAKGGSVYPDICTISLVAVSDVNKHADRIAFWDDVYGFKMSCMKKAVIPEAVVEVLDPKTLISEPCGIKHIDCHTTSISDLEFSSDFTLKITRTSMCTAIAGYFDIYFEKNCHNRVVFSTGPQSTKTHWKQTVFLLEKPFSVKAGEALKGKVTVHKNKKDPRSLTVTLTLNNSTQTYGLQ
SMILES,remaining activity at 1 µM [1] [%],remaining activity at 10 µM [1] [%],remaining activity at 1 µM [2] [%],remaining activity at 10 µM [2] [%],remaining activity at 1 µM [3] [%],remaining activity at 10 µM [3] [%],remaining activity at 1 µM [4] [%],remaining activity at 10 µM [4] [%],remaining activity at 1 µM [5] [%],remaining activity at 10 µM [5] [%]
CC1(C)O[C@@H]2[C@H](O1)[C@@H](CSCCCCNCc1cccc(-c3ccc(Cl)cc3)c1)O[C@H]2n1cnc2c(N)ncnc21 [SGC8158N],101,98,96,96,99,102,103,97,95,75
Nc1ncnc2c1ncn2[C@@H]1O[C@H](CSCCCCNCc2cccc(-c3ccc(Cl)cc3)c2)[C@@H](O)[C@H]1O [SGC8158],106,99,57,6,96,97,95,86,2,0
